Data on 6 compounds can be found in PubChem BioAssay (NCI).

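Cells were grown in 96-well plates and exposed to each compound for 48 hours at five concentrations; endpoints were interpolated linearly between bracketing concentrations, or set to the highest concentration if not reached. Here, GI50 denotes the concentration required for 50% inhibition of growth. Definition used: TGI = concentration required for complete inhibition of growth.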

Among the test systems are NCI-H522 lung; A498 renal; SF-539 CNS; SK-MEL-2 melanoma; HCT-15 colon; HL-60(TB) leukemia; SNB-75 CNS; A549 NSCLC; SF-295 CNS; RPMI-8226 leukemia.
What all share (test): NCI-60 cell line screen, 48 h

Take `COc1cc(/C=C/[N+](=O)[O-])cc(OC)c1`: the GI50 in the test on NCI-H522 lung was 1.39 µM; with A498 renal, 2.96 µM; in the test on SF-539 CNS it was 2.49 µM; in the test on SK-MEL-2 melanoma it was 2.1 µM; with HCT-15 colon it was 1.99 µM; with HL-60(TB) leukemia it was 2.22 µM. The GI50 in the test with SNB-75 CNS is 3.82 µM; with A549 NSCLC, 3.94 µM; in the test with SF-295 CNS, 2.54 µM; with RPMI-8226 leukemia, 1.85 µM. For the same compound, the TGI in the test with NCI-H522 lung amounted to 3.14 µM; in the test on A498 renal it was 9.12 µM; in the test on SF-539 CNS, 5.56 µM; in the test with SK-MEL-2 melanoma, 4.76 µM; in the test on HCT-15 colon, 6.11 µM; in the test on HL-60(TB) leukemia, 5.68 µM. The TGI with SNB-75 CNS turned out to be 16.7 µM; with A549 NSCLC, 16.8 µM; with SF-295 CNS, 7.29 µM; in the test on RPMI-8226 leukemia, 4.61 µM.
Turning to `O=[N+]([O-])c1ccc(NC(c2ccccc2)c2ccc3cccnc3c2O)cc1` (stereo not given), the GI50 in the test on NCI-H522 lung was 0.392 µM; in the test on A498 renal, 0.634 µM; with SF-539 CNS, 0.499 µM; with SK-MEL-2 melanoma, 0.943 µM; in the test on HCT-15 colon, 0.326 µM; in the test on HL-60(TB) leukemia, 0.334 µM. Further, the GI50 in the test with SNB-75 CNS is 1.63 µM; in the test with A549 NSCLC, 0.878 µM; in the test with SF-295 CNS it was 0.314 µM; in the test with RPMI-8226 leukemia it was 0.313 µM. Further, the TGI in the test on NCI-H522 lung was over 100 µM; in the test on A498 renal, 8.13 µM; in the test with SF-539 CNS it was over 31.9 µM; with SK-MEL-2 melanoma, over 100 µM; in the test on HCT-15 colon, over 100 µM; in the test with HL-60(TB) leukemia it was 1.47 µM. Moreover, the TGI in the test on SNB-75 CNS, with A549 NSCLC, in the test with SF-295 CNS and in the test with RPMI-8226 leukemia was over 100 µM in each case.
Consider `CN1CCN(CCCn2c3c(sc4ncccc43)c(=O)n3nnc(-c4ccccc4)c23)CC1`, for which the GI50 was 1.6 µM with NCI-H522 lung; 6.7 µM with A498 renal; 1.71 µM with SF-539 CNS; 21.6 µM with SK-MEL-2 melanoma; 1.87 µM with HCT-15 colon; 1.48 µM in the test with HL-60(TB) leukemia. The GI50 in the test on SNB-75 CNS was 9.85 µM; in the test with A549 NSCLC it was 1.54 µM; in the test with SF-295 CNS, 1.73 µM; with RPMI-8226 leukemia, 2.08 µM. Also, the TGI with NCI-H522 lung amounted to 3.3 µM; in the test with A498 renal it was 21.3 µM; in the test on SF-539 CNS it was 3.33 µM; in the test on SK-MEL-2 melanoma, 39 µM; in the test with HCT-15 colon, 4.3 µM; in the test on HL-60(TB) leukemia, 3.47 µM. For the same compound, the TGI with SNB-75 CNS is 23.4 µM; in the test on A549 NSCLC, 2.92 µM; in the test on SF-295 CNS it was 3.36 µM; in the test on RPMI-8226 leukemia, 5.3 µM.
For `CC(C)Cc1cc(-c2cccn2C)c(C#N)c(=O)[nH]1`, the GI50 with NCI-H522 lung is over 100 µM; in the test on A498 renal, over 100 µM; in the test with SF-539 CNS, over 100 µM; in the test on SK-MEL-2 melanoma, over 100 µM; with HCT-15 colon, over 100 µM; with HL-60(TB) leukemia, 45.8 µM. Besides, the GI50 is 40.1 µM with SNB-75 CNS, over 100 µM in the test with A549 NSCLC, over 100 µM with SF-295 CNS and over 100 µM in the test on RPMI-8226 leukemia. Besides, the TGI with NCI-H522 lung, in the test with A498 renal, with SF-539 CNS, in the test on SK-MEL-2 melanoma, in the test with HCT-15 colon and in the test on HL-60(TB) leukemia was over 100 µM each time. Moreover, the TGI in the test with SNB-75 CNS, in the test with A549 NSCLC, with SF-295 CNS and in the test on RPMI-8226 leukemia was over 100 µM throughout.
Consider `COc1ccc(COc2ccc(Cc3cnc(N)nc3N)cc2OC)cc1`, for which the GI50 is over 25 µM with NCI-H522 lung; 2.27 µM in the test on A498 renal; over 25 µM in the test with SF-539 CNS; over 25 µM with SK-MEL-2 melanoma; over 23.7 µM with HCT-15 colon; over 20.6 µM with HL-60(TB) leukemia. Also, the GI50 is 8.09 µM in the test with SNB-75 CNS, over 23.4 µM with A549 NSCLC, 10.4 µM in the test on SF-295 CNS and over 19.9 µM in the test with RPMI-8226 leukemia. Moreover, the TGI in the test with NCI-H522 lung, with A498 renal, in the test with SF-539 CNS, in the test with SK-MEL-2 melanoma, with HCT-15 colon and in the test with HL-60(TB) leukemia was over 25 µM throughout. The TGI in the test with SNB-75 CNS, in the test on A549 NSCLC, in the test on SF-295 CNS and with RPMI-8226 leukemia was over 25 µM throughout.
Take `CS(=O)(=O)Nc1cc(-c2ccc3ncnc(Nc4ccc(OCc5ccccn5)c(Cl)c4)c3c2)cnc1Cl`: the GI50 was 0.131 µM with NCI-H522 lung; 0.155 µM with A498 renal; 0.31 µM with SF-539 CNS; 0.184 µM in the test on SK-MEL-2 melanoma; 1.13 µM in the test with HCT-15 colon; 0.23 µM in the test with HL-60(TB) leukemia. The GI50 is 0.0438 µM with SNB-75 CNS, 1.09 µM with A549 NSCLC, 0.526 µM in the test with SF-295 CNS and 0.286 µM in the test with RPMI-8226 leukemia. Besides, the TGI is 2.35 µM in the test with NCI-H522 lung; 0.641 µM in the test on A498 renal; 2.38 µM in the test with SF-539 CNS; 0.739 µM in the test on SK-MEL-2 melanoma; over 42 µM in the test with HCT-15 colon; 2.72 µM in the test with HL-60(TB) leukemia. Also, the TGI came out at 0.797 µM in the test on SNB-75 CNS, 5.48 µM in the test on A549 NSCLC, 4.75 µM in the test with SF-295 CNS and 1.03 µM in the test on RPMI-8226 leukemia.
